{"source": "patent US7745619B2", "about": "“Vinca derivatives” (priority 2003, dated 2010)", "key": {"MCF-7 cells": {"test_system": "MCF-7 cells", "assay": "MCF-7 GI50 determination (crystal violet growth inhibition)", "type": "cell-based, human", "conditions": "Homo sapiens, MCF7, 96 h, read-out: MCF-7 Cells GI50 (nM)", "protocol": "Growth inhibition (GI50) values were measured on the human breast carcinoma line, MCF-7. MCF-7 cells were plated at 2×10^4 cells/well in 96 well plates and grown for 24 hours in drug free media. On day 2, test compounds were added to the plates at 10-fold dilutions. Four days later, cells were fixed by the addition of glutaraldehyde to 0.75%. After 30 min, the fixed cells were extensively rinsed with distilled water and dried at room temperature for one hour. The cells were then stained with a 0.2% crystal violet solution for one hour at room temperature. Unbound stain was removed by ten rinses with tap water and plates were allowed to air dry for 30 min. The crystal violet was then solubilized by the addition of 10% acetic acid for 15 min and quantified by measuring absorbance at 570 nm on a Molecular Devices microplate reader. Growth inhibition was calculated according to the following equation: GI=[…], where the optical density (OD) of the test well after 4 days of treatment was T, the OD of the wells in the control plate on day 0 was T0. Plots of percent growth inhibition versus inhibitor concentration were used to determine the GI50."}, "HeLa S-3 cells": {"test_system": "HeLa S-3 cells", "assay": "HeLa GI50 determination (SRB growth inhibition)", "type": "cell-based, human", "conditions": "Homo sapiens, HeLa S3, 48 h, read-out: HeLa Cells GI50 (nM)", "protocol": "Growth inhibition (GI50) values were measured on the human cervical carcinoma cell line, HeLa S-3, which were selected for growth on plastic. The HeLa cell assay was based on the description of Skehan et al., J. Natl. Cancer Inst., 82:1107-12 (1990), which is hereby incorporated by reference in its entirety. HeLa cells were plated at 2×10^4 cells/well in 96 well plates. One day later, a control plate was fixed by the addition of TCA to 5%. After five rinses with tap water, the plate was air-dried and stored at 4° C. Test compounds were added to the remaining plates at 10-fold dilutions. Two days later, all plates were fixed as described above. Cells were then stained by the addition of 100 μL per well of 0.4% sulforhodamine B (SRB) in 1% acetic acid for 30 min at 4° C. Wells were then quickly rinsed 5× with 1% acetic acid and allowed to air dry. The SRB was then solubilized by the addition of 100 μL per well of unbuffered 10 mM Tris base. Dye was quantified by measuring absorbance at 490 nm on a Molecular Devices microplate reader. Growth inhibition was calculated according to the following equation: GI=100×(T−T0)/(C−T0), where the optical density (OD) of the test well after 2 days of treatment was T, the OD of the wells in the control plate on day 0 was T0 and C was the OD of untreated wells. Plots of percent growth inhibition versus inhibitor concentration were used to determine the GI50."}}}
{"compound": "CC[C@]1(O)C[C@H]2CN(CCc3c([nH]c4ccc(-c5ccccc5)cc34)[C@@](C(=O)OC)(c3cc4c(cc3OC)N(C=O)[C@H]3[C@@](O)(C(=O)OC)[C@H](OC(C)=O)[C@]5(CC)C=CCN6CC[C@]43[C@@H]65)C2)C1", "note": "[Example 5, 12′-phenylvincristine]", "values": [{"measurement": "GI50", "setting": "MCF-7 cells", "value": 30, "unit": "nM"}, {"measurement": "GI50", "setting": "HeLa S-3 cells", "value": 50, "unit": "nM"}]}
{"compound": "CC[C@]1(O)C[C@H]2CN(CCc3c([nH]c4ccc(-c5ccccc5)cc34)[C@@](C(=O)OC)(c3cc4c(cc3OC)N(C)[C@H]3[C@@](O)(C(=O)OC)[C@H](OC(C)=O)[C@]5(CC)C=CCN6CC[C@]43[C@@H]65)C2)C1", "note": "[Example 6, 12′-phenylvinblastine]", "values": [{"measurement": "GI50", "setting": "MCF-7 cells", "value": 300, "unit": "nM"}, {"measurement": "GI50", "setting": "HeLa S-3 cells", "value": 400, "unit": "nM"}]}
{"compound": "CC[C@]1(O)C[C@H]2CN(CCc3c([nH]c4ccc(-c5ccc(OC)cc5)cc34)[C@@](C(=O)OC)(c3cc4c(cc3OC)N(C=O)[C@H]3[C@@](O)(C(=O)OC)[C@H](OC(C)=O)[C@]5(CC)C=CCN6CC[C@]43[C@@H]65)C2)C1", "note": "[Example 7, 12′-(4-methoxyphenyl) vincristine]", "values": [{"measurement": "GI50", "setting": "MCF-7 cells", "value": 100, "unit": "nM"}, {"measurement": "GI50", "setting": "HeLa S-3 cells", "value": 400, "unit": "nM"}]}
{"compound": "CC[C@]1(O)C[C@H]2CN(CCc3c([nH]c4ccc(-c5cccc(OC)c5)cc34)[C@@](C(=O)OC)(c3cc4c(cc3OC)N(C)[C@H]3[C@@](O)(C(=O)OC)[C@H](OC(C)=O)[C@]5(CC)C=CCN6CC[C@]43[C@@H]65)C2)C1", "note": "[Example 9, 12′-(3-methoxyphenyl) vinblastine]", "values": [{"measurement": "GI50", "setting": "MCF-7 cells", "value": 500, "unit": "nM"}, {"measurement": "GI50", "setting": "HeLa S-3 cells", "value": 300, "unit": "nM"}]}
{"compound": "CC[C@]1(O)C[C@H]2CN(CCc3c([nH]c4ccc(-c5ccc(F)cc5)cc34)[C@@](C(=O)OC)(c3cc4c(cc3OC)N(C)[C@H]3[C@@](O)(C(=O)OC)[C@H](OC(C)=O)[C@]5(CC)C=CCN6CC[C@]43[C@@H]65)C2)C1", "note": "[Example 10, 12′-(4-fluorophenyl) vinblastine]", "values": [{"measurement": "GI50", "setting": "MCF-7 cells", "value": 95, "unit": "nM"}, {"measurement": "GI50", "setting": "HeLa S-3 cells", "value": 250, "unit": "nM"}]}
{"compound": "CC[C@]1(O)C[C@H]2CN(CCc3c([nH]c4ccc(-c5cccc(F)c5)cc34)[C@@](C(=O)OC)(c3cc4c(cc3OC)N(C)[C@H]3[C@@](O)(C(=O)OC)[C@H](OC(C)=O)[C@]5(CC)C=CCN6CC[C@]43[C@@H]65)C2)C1", "note": "[Example 11, 12′-(3-fluorophenyl) vinblastine]", "values": [{"measurement": "GI50", "setting": "MCF-7 cells", "value": 300, "unit": "nM"}, {"measurement": "GI50", "setting": "HeLa S-3 cells", "value": 300, "unit": "nM"}]}
{"compound": "CC[C@]1(O)C[C@H]2CN(CCc3c([nH]c4ccc(-c5cccc(O)c5)cc34)[C@@](C(=O)OC)(c3cc4c(cc3OC)N(C)[C@H]3[C@@](O)(C(=O)OC)[C@H](OC(C)=O)[C@]5(CC)C=CCN6CC[C@]43[C@@H]65)C2)C1", "note": "[Example 12, 12′-(3-hydroxyphenyl) vinblastine]", "values": [{"measurement": "GI50", "setting": "MCF-7 cells", "value": 300, "unit": "nM"}, {"measurement": "GI50", "setting": "HeLa S-3 cells", "value": 200, "unit": "nM"}]}
{"compound": "CC[C@]1(O)C[C@H]2CN(CCc3c([nH]c4ccc(-c5cccnc5)cc34)[C@@](C(=O)OC)(c3cc4c(cc3OC)N(C)[C@H]3[C@@](O)(C(=O)OC)[C@H](OC(C)=O)[C@]5(CC)C=CCN6CC[C@]43[C@@H]65)C2)C1", "note": "[Example 13, 12′-(3-pyridyl) vinblastine]", "values": [{"measurement": "GI50", "setting": "MCF-7 cells", "value": 600, "unit": "nM"}, {"measurement": "GI50", "setting": "HeLa S-3 cells", "value": "> 1000", "unit": "nM"}]}
{"compound": "CC[C@]1(O)C[C@H]2CN(CCc3c([nH]c4ccc(-c5ccsc5)cc34)[C@@](C(=O)OC)(c3cc4c(cc3OC)N(C)[C@H]3[C@@](O)(C(=O)OC)[C@H](OC(C)=O)[C@]5(CC)C=CCN6CC[C@]43[C@@H]65)C2)C1", "note": "[Example 14, 12′-(3-thienyl) vinblastine]", "values": [{"measurement": "GI50", "setting": "MCF-7 cells", "value": 300, "unit": "nM"}, {"measurement": "GI50", "setting": "HeLa S-3 cells", "value": 300, "unit": "nM"}]}
{"compound": "CC[C@]1(O)C[C@H]2CN(CCc3c([nH]c4ccc(-c5nccs5)cc34)[C@@](C(=O)OC)(c3cc4c(cc3OC)N(C)[C@H]3[C@@](O)(C(=O)OC)[C@H](OC(C)=O)[C@]5(CC)C=CCN6CC[C@]43[C@@H]65)C2)C1", "note": "[Example 15, 12′-(2-thiazolyl) vinblastine]", "values": [{"measurement": "GI50", "setting": "MCF-7 cells", "value": 100, "unit": "nM"}, {"measurement": "GI50", "setting": "HeLa S-3 cells", "value": 200, "unit": "nM"}]}
